Here are results for nine compounds from PubChem BioAssay AID1259407 (Chemical Carcinogenesis Research Information System (CCRIS), 2018).

This data set deals with CCRIS mutagenicity, Ames/micronucleus/aberration tests. Briefly: CCRIS mutagenicity studies.
Where [1] appears, read: Test System: AMES SALMONELLA TYPHIMURIUM, Strain/Indicator: TA98, Metabolic Activation: NONE, Method: PREINCUBATION
The mark [2] stands for this setting: Test System: AMES SALMONELLA TYPHIMURIUM, Strain/Indicator: TA98, Metabolic Activation: RAT, LIVER, S-9, PCB, Method: PREINCUBATION
The mark [3] stands for this setting: Test System: AMES SALMONELLA TYPHIMURIUM, Strain/Indicator: TA100, Metabolic Activation: NONE, Method: PREINCUBATION
Where [4] appears, read: Test System: AMES SALMONELLA TYPHIMURIUM, Strain/Indicator: TA100, Metabolic Activation: RAT, LIVER, S-9, PCB, Method: PREINCUBATION

Calls of active or inactive are those of the source. No rule for the calls is given here.

Take `CC(C)N=C(NC(C)C)OCc1ccc([N+](=O)[O-])cc1`: the mutagenic call is, setting by setting: under setting [1], “active; positive”; under setting [2], “active; positive”; under setting [3], “active; positive”; under setting [4], “active; positive”.
In the case of `COc1cc(O)c2c(=O)c3cc(O)ccc3oc2c1`, the mutagenic call was “active; positive” (Test System: AMES SALMONELLA TYPHIMURIUM, Strain/Indicator: TA97, Metabolic Activation: RAT, LIVER, S-9, PHENOBARBITAL AND 5,6-BENZOFLAVONE, Method: PREINCUBATION); “inactive; negative” (Test System: AMES SALMONELLA TYPHIMURIUM, Strain/Indicator: TA98, Metabolic Activation: RAT, LIVER, S-9, PHENOBARBITAL AND 5,6-BENZOFLAVONE, Method: PREINCUBATION); “inactive; negative” (Test System: AMES SALMONELLA TYPHIMURIUM, Strain/Indicator: TA100, Metabolic Activation: RAT, LIVER, S-9, PHENOBARBITAL AND 5,6-BENZOFLAVONE, Method: PREINCUBATION); “active; positive” (Test System: AMES SALMONELLA TYPHIMURIUM, Strain/Indicator: TA2637, Metabolic Activation: RAT, LIVER, S-9, 5,6-BENZOFLAVONE AND/OR SODIUM PHENOBARBITAL, Method: PREINCUBATION); “active; positive” (Test System: AMES SALMONELLA TYPHIMURIUM, Strain/Indicator: TA2637, Metabolic Activation: RAT, LIVER, S-9, PHENOBARBITAL AND 5,6-BENZOFLAVONE, Method: PREINCUBATION); “inactive; negative” (Test System: AMES SALMONELLA TYPHIMURIUM, Strain/Indicator: TA2637, Metabolic Activation: RAT, LIVER, S-105, 5,6-BENZOFLAVONE AND/OR SODIUM PHENOBARBITAL, Method: PREINCUBATION).
With `[NH-]CCC(=O)[N-][C@@H](Cc1cnc[nH]1)C(=O)[O-].[Zn+2]`, the mutagenic call is “inactive; negative” (Test System: AMES SALMONELLA TYPHIMURIUM, Strain/Indicator: SD100, Metabolic Activation: NONE, Method: PREINCUBATION); “inactive; negative” (Test System: AMES SALMONELLA TYPHIMURIUM, Strain/Indicator: SD100, Metabolic Activation: RAT, LIVER, S-9, AROCLOR 1254, Method: PREINCUBATION); “inactive; negative” (Test System: AMES SALMONELLA TYPHIMURIUM, Strain/Indicator: TM677, Metabolic Activation: NONE, Method: PREINCUBATION); “inactive; negative” (Test System: AMES SALMONELLA TYPHIMURIUM, Strain/Indicator: TM677, Metabolic Activation: RAT, LIVER, S-9, AROCLOR 1254, Method: PREINCUBATION); “inactive; negative” (Test System: E. COLI, Strain/Indicator: WP2 UVRA, Metabolic Activation: NONE, Method: PREINCUBATION); “inactive; negative” (Test System: E. COLI, Strain/Indicator: WP2 UVRA, Metabolic Activation: RAT, LIVER, S-9, AROCLOR 1254, Method: PREINCUBATION).
Take `Cc1c(N)nc([C@H](CC(N)=O)NC[C@H](N)C(N)=O)nc1C(=O)N[C@H](C(=O)N[C@H](C)[C@@H](O)[C@H](C)C(=O)N[C@H](C(=O)NCCc1nc(-c2nc(C(=O)NCCCN(C)CCCN=C(N)CC3CCC(Cl)CC3)cs2)cs1)[C@@H](C)O)[C@@H](O[C@@H]1O[C@@H](CO)[C@@H](O)[C@H](O)[C@@H]1O[C@H]1O[C@H](CO)[C@@H](O)[C@H](OC(N)=O)[C@@H]1O)c1cnc[nH]1` (some centres not stated): the mutagenic call reads like this: (Test System: AMES SALMONELLA TYPHIMURIUM, Strain/Indicator: TA94, Metabolic Activation: NONE, Method: PREINCUBATION) “active; positive”; (Test System: AMES SALMONELLA TYPHIMURIUM, Strain/Indicator: TA102, Metabolic Activation: NONE, Method: PREINCUBATION) “active; positive”.
In the case of `COc1ccc2c(c1O)C(=O)c1ccccc1C2=O`, the mutagenic call reads like this: under setting [1], “inactive; negative”; under setting [2], “inactive; negative”; under setting [3], “inactive; negative”; under setting [4], “inactive; negative”.
As to `CCc1cccc2cccnc12`, the mutagenic call (Test System: AMES SALMONELLA TYPHIMURIUM, Strain/Indicator: TA100, Metabolic Activation: S-9, Method: PREINCUBATION) was “active; positive”.
Take `CCCCN(CC(O)c1ccc(O)cc1)N=O` (configuration not stated): the mutagenic call by setting is: under setting [1], “inactive; negative”; (Test System: AMES SALMONELLA TYPHIMURIUM, Strain/Indicator: TA98, Method: PREINCUBATION) “inactive; negative”; under setting [3], “inactive; negative”; (Test System: AMES SALMONELLA TYPHIMURIUM, Strain/Indicator: TA100, Method: PREINCUBATION) “inactive; negative”.
Take `Nc1nc(F)nc2c1ncn2[C@@H]1O[C@H](CO)[C@@H](O)[C@@H]1O`: the mutagenic call (Test System: CHINESE HAMSTER OVARY, Strain/Indicator: CHO/6-THIOGUANINE, Metabolic Activation: NONE) is “active; positive”.
Regarding `CCCCN(N=O)/C(N)=N/[N+](=O)[O-]`, the mutagenic call by setting is: under setting [3], “active; positive”; (Test System: AMES SALMONELLA TYPHIMURIUM, Strain/Indicator: TA100, Metabolic Activation: RAT, LIVER, S-9, KC500 OR PHENOBARBITAL, Method: LIQUID SUSPENSION) “active; positive”; (Test System: AMES SALMONELLA TYPHIMURIUM, Strain/Indicator: TA1535, Metabolic Activation: NONE, Method: PREINCUBATION) “active; positive”; (Test System: AMES SALMONELLA TYPHIMURIUM, Strain/Indicator: TA1535, Metabolic Activation: NONE, Method: STANDARD PLATE) “active; positive”; (Test System: AMES SALMONELLA TYPHIMURIUM, Strain/Indicator: TA1535, Metabolic Activation: RAT, LIVER, S-9, KC500 OR PHENOBARBITAL, Method: LIQUID SUSPENSION) “active; positive”; (Test System: AMES SALMONELLA TYPHIMURIUM, Strain/Indicator: YG7104, Metabolic Activation: NONE, Method: PREINCUBATION) “active; positive”. Besides, the mutagenic call (Test System: AMES SALMONELLA TYPHIMURIUM, Strain/Indicator: YG7108, Metabolic Activation: NONE, Method: PREINCUBATION) was “active; positive”; the mutagenic call (Test System: AMES SALMONELLA TYPHIMURIUM, Strain/Indicator: YG7112, Metabolic Activation: NONE, Method: PREINCUBATION) is “active; positive”; the mutagenic call (Test System: AMES SALMONELLA TYPHIMURIUM, Strain/Indicator: YG7113, Metabolic Activation: NONE, Method: PREINCUBATION) was “active; positive”.
